Patent US20260297105A1, “RAF-MEK PROTEIN COMPLEX MODULATORS AND METHODS OF USE THEREOF” (GANDEEVA THERAPEUTICS, INC., priority 2023, published 2026)
Where two headings read alike, the source gives them in different places.

Assays:
MEK1 = target: T1, MEK1 (Homo sapiens, UniProt Q02750); assay: MEK1 kinase cascade assay (ADP-Glo), inhibition of MEK1 kinase activity; format: biochemical; settings: 25 nM BRAF, 6.25 nM MEK1, 0.5 μM ERK, 1 mM ATP; 20 min preincubation, 1 hr at 25° C.; read-out: BRAF ADP Glo kinase assay V3 (IC50)
T1 construct: purchased SignalChem M02-14H
Procedure, shortened: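 Cascade format with ADP-Glo read-out: BRAF (25 nM) and compound, 1% DMSO, 20 mins at 25° C, then MEK1 6.25 nM, ERK1 0.5 μM, ATP 1 mM for 1 hr at 25° C in HEPES pH 7.5 buffer with MgCl2, CHAPS and DTT. Percent inhibition, scaled between DMSO and 1 μM Trametinib, was fit by 4-parameter logistic to give IC50 (2 replicate wells).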

BRAF-MEK1 = assay: BRAF-MEK TR-FRET assay, stabilization of MEK1 and BRAF interaction; format: binding; settings: 4 nM BRAF, 10 nM MEK, 100 μM ATP, 1 hr at 25° C., read-out: BRAF-MEK TR-FRET Assay (EC50, fold stabilization)
Text: Protein expression and purification: BRAF (445-723) with N-term His-tag and C-term StrepII tag was expressed using the Expi293 system (ThermoFisher) and purified using Strep-Tactin® XT-Superflow (IBA) chromatography. ERK1 (full-length) with N-term His-tag was expressed in Rosetta DE3 cells (Millipore) and purified using HisTrap HP (Cytiva) and Superdex 200 (Cytiva) column chromatography. Full-length MEK1 for TR-FRET assays with N-term His-tag was expressed in BL21DE3 cells (ThermoFisher) and purified using HisTrap HP (Cytiva) and Superdex 200 (Cytiva) column chromatography.
Efficacy of exemplary compounds in stabilization of MEK1 and BRAF interaction: Compound stabilization of BRAF-MEK interaction was evaluated using TR-FRET (Time Resolved Fluorescence Energy Transfer). The FRET assay consisted of His-tagged MEK1 (produced in-house), GST-tagged BRAF (SignalChem, B08-11G), Anti His-Tb Cryptate donor, and Anti GST-XL665 acceptor fluorophores (PerkinElmer) to generate FRET signal upon BRAF-MEK1 binding. Compounds were prepared from DMSO stocks in assay buffer (50 mM Tris pH 7.5, 150 mM NaCl, 1 mM DTT, 0.05% Tween-20, 5 mM MgCl2, and 100 μM ATP) and incubated with 4 nM BRAF and 10 nM MEK for 1 hr at 25° C. 1 ng Anti His-Tb Cryptate/20 ng Anti GST-XL665 premix was then added and incubated for 1 hr at 25° C. TR-FRET was measured using Cytation5 microplate reader (Agilent) using Ex/Em=340/620 nm and Ex/Em=340/665 nm to determine the FRET ratio. Fold stabilization was calculated as FRET signal of treated well/DMSO control. Fold stabilization as a function of compound concentration from 2 replicate wells was fit with a 4-parameter logistic curve equation using GraphPad Prism or CDD Vault to derive EC50 values.
In this table, for the BRAF ADP Glo kinase assay, “A” indicates IC50 of less than 5 nM; “B” indicates IC50 of between 5 nM to 50 nM; and “C” indicates IC50 of between 50 nM to 500 nM. “D” indicates IC50 of greater than 500 nM. For the BRAF-MEK TR-FRET assay, “A” indicates EC50 of less than 50 nM; “B” indicates EC50 of between 50 nM to 200 nM; and “C” indicates EC50 of between 200 nM to 1 μM. “D′” indicates EC50 of greater than 1 μM. For the AlphaLisa P-ERK assay, “A” indicates IC50 of less than 1 nM; “B” indicates IC50 of between 1 nM to 10 nM; and “C” indicates IC50 of between 10 nM to 100 nM. “D” indicates IC50 of greater than 100 nM. For the cell viability assay, “A” indicates IC50 of less than 1 nM; “B” indicates IC50 of between 1 nM to 10 nM; and “C” indicates IC50 of between 10 nM to 100 nM. “D” indicates IC50 of greater than 100 nM.

T1 sequence (Q02750 whole entry): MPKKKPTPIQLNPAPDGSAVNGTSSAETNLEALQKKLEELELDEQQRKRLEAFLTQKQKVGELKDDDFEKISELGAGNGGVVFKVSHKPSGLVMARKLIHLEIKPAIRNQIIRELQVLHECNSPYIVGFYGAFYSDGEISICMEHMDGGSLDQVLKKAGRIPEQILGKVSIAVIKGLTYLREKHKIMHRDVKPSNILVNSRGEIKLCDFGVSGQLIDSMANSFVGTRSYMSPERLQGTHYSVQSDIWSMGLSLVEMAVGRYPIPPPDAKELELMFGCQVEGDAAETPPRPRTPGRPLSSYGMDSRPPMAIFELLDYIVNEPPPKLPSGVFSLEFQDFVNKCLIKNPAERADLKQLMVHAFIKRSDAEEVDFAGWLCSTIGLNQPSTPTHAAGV
T1 sequence (P15056 445-723 partner limits assumed): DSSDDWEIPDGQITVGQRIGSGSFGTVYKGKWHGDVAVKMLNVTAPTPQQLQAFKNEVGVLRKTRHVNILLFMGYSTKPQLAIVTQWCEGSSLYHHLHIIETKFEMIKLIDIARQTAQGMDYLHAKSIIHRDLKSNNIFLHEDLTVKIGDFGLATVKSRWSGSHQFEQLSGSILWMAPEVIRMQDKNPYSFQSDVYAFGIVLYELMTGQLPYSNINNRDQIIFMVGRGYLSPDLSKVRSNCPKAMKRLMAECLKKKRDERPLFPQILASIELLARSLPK

Row | SMILES | IC50 (MEK1) | EC50 (BRAF-MEK1; 60 min) | EC50 (BRAF-MEK1)
1 | CNS(=O)(=O)Nc1nccc(CN2C(=O)Oc3cc(Oc4nccnn4)cnc3[C@@H]2C)c1F (stereo in doubt) [Compound 198, 3-{[3-fluoro-2-(methylaminosulfonylamino)-4-pyridyl]methyl}-4-methyl-7-(1,2,4-triazin-3-yloxy)-3,4-dihydro-2H-1-oxa-3,5-diazanaphthalen-2-one] | 5 to 50 nM | < 50 nM | 
2 | CNS(=O)(=O)Nc1nccc(CN2C(=O)Oc3cc(Oc4cccnn4)ccc3C23COC3)c1F [Compound 24, 3-({3-fluoro-2-[(methylsulfamoyl)amino]pyridin-4-yl}methyl)-7-(pyridazin-3-yloxy)-2,3-dihydrospiro[1,3-benzoxazine-4,3′-oxetan]-2-one] | 5 to 50 nM |  | 50 to 200 nM
3 | CN(C)S(=O)(=O)Nc1cccc(CN2C(=O)Oc3cc(Oc4cccnn4)ccc3C23CCC3)c1F [Compound 25, 3-{[3-(dimethylaminosulfonylamino)-2-fluorophenyl]methyl}-7-(3-pyridazinyloxy)-2H,3H-spiro[1,3-benzoxazine-4,1′-cyclobutan]-2-one] | < 5 nM |  | < 50 nM
4 | CN(C)C(=O)Oc1ccc2c(c1)OC(=O)N(Cc1cccc(NS(=O)(=O)N3CCC(C(N)=O)C3)c1F)C2 (stereo not drawn) [Compound 28, 3-[(3-{[(3-carbamoylpyrrolidin-1-yl)sulfonyl]amino}-2-fluorophenyl)methyl]-2-oxo-3,4-dihydro-2H-1,3-benzoxazin-7-yl N,N-dimethylcarbamate] | 5 to 50 nM |  | 200 to 1000 nM
5 | [2H]C1([2H])c2ccc(Oc3nccnn3)cc2OC(=O)N1Cc1cccc(NS(=O)(=O)NC)c1F [Compound 31, 3-({2-fluoro-3-[(methylsulfamoyl)amino]phenyl}methyl)-7-(1,2,4-triazin-3-yloxy)-3,4-dihydro(4,4-^2 H2)-2H-1,3-benzoxazin-2-one] | 5 to 50 nM |  | < 50 nM
6 | CNS(=O)(=O)Nc1nccc(CN2C(=O)Oc3cc(Oc4cccnn4)ccc3C2(C)C)c1F [Compound 32, 3-({3-fluoro-2-[(methylsulfamoyl)amino]pyridin-4-yl}methyl)-4,4-dimethyl-7-(pyridazin-3-yloxy)-3,4-dihydro-2H-1,3-benzoxazin-2-one] | 5 to 50 nM |  | 200 to 1000 nM
7 | CN(C)C(=O)Oc1ccc2c(c1)OC(=O)N(Cc1cccc(NS(=O)(=O)N(C)C)c1F)C21CCC1 [Compound 33, 3-({3-[(dimethylsulfamoyl)amino]-2-fluorophenyl}methyl)-2-oxo-2,3-dihydrospiro[1,3-benzoxazine-4,1′-cyclobutan]-7-yl N,N-dimethyl carbamate] | 5 to 50 nM |  | 50 to 200 nM
8 | CN(C)S(=O)(=O)Nc1cccc(CN2C(=O)Oc3cc(Oc4cccnn4)ccc3C2(C)C)c1F [Compound 34, 3-{[3-(dimethylaminosulfonylamino)-2-fluorophenyl]methyl}-4,4-dimethyl-7-(3-pyridazinyloxy)-3,4-dihydro-2H-1,3-benzoxazin-2-one] | < 5 nM |  | 200 to 1000 nM
9 | CN(C)S(=O)(=O)Nc1cccc(CN2Cc3ccc(Oc4cccnn4)cc3OC2=O)c1F [Compound 37, 3-{[3-(dimethylaminosulfonylamino)-2-fluorophenyl]methyl}-7-(3-pyridazinyloxy)-3,4-dihydro-2H-1,3-benzoxazin-2-one] | 5 to 50 nM |  | 50 to 200 nM
10 | CNS(=O)(=O)Nc1cccc(CN2C(=O)Oc3cc(OC(=O)N(C)C)ccc3C23CN(C)C3)c1F [Compound 48, 3′-(2-fluoro-3-((N-methylsulfamoyl)amino)benzyl)-1-methyl-2′-oxo-2′,3′-dihydrospiro[azetidine-3,4′-benzo[e][1,3]oxazin]-7′-yl dimethylcarbamate] | 5 to 50 nM |  | 200 to 1000 nM
11 | CNS(=O)(=O)Nc1cccc(CN2C(=O)Oc3cc(OC(=O)N(C)C)ccc3C23CNC3)c1F [Compound 49] | 5 to 50 nM |  | 200 to 1000 nM
12 | CNS(=O)(=O)Nc1cccc(CN2Cc3cc(F)c(Oc4ncccn4)cc3OC2=O)c1F [Compound 83, 6-fluoro-3-{[2-fluoro-3-(methylaminosulfonylamino)phenyl]methyl}-7-(2-pyrimidinyloxy)-3,4-dihydro-2H-1,3-benzoxazin-2-one] | 5 to 50 nM |  | 200 to 1000 nM
13 | CNS(=O)(=O)Nc1cccc(CN2Cc3ccc(Oc4ncco4)c(F)c3OC2=O)c1F [Compound 91, 8-fluoro-3-{[2-fluoro-3-(methylaminosulfonylamino)phenyl]methyl}-7-(1,3-oxazol-2-yloxy)-3,4-dihydro-2H-1,3-benzoxazin-2-one] | < 5 nM |  | 200 to 1000 nM
14 | CNS(=O)(=O)Nc1cccc(CN2Cc3cc(F)c(OC(=O)N(C)C)c(F)c3OC2=O)c1F [Compound 96, 6,8-difluoro-3-(2-fluoro-3-((N-methylsulfamoyl)amino)benzyl)-2-oxo-3,4-dihydro-2H-benzo[e][1,3]oxazin-7-yl dimethylcarbamate] | < 5 nM |  | 50 to 200 nM
15 | COC1CCN(S(=O)(=O)Nc2cccc(CN3Cc4ccc(OC(=O)N(C)C)cc4OC3=O)c2F)C1 (stereo not drawn) [Compound 100, 3-(2-fluoro-3-((3-methoxypyrrolidine)-1-sulfonamido)benzyl)-2-oxo-3,4-dihydro-2H-benzo[e][1,3]oxazin-7-yl dimethylcarbamate] | 5 to 50 nM |  | 200 to 1000 nM
16 | CNS(=O)(=O)Nc1cccc(CN2C(=O)Oc3cc(OC(=O)N(C)C)c(Cl)cc3[C@H]2C)c1F [Compound 107, (R)-6-chloro-7-(dimethylaminocarbonyloxy)-3-{[2-fluoro-3-(methylaminosulfonylamino)phenyl]methyl}-4-methyl-3,4-dihydro-2H-1,3-benzoxazin-2-one] | 5 to 50 nM |  | 200 to 1000 nM
17 | CN(C)C(=O)Oc1ccc2c(c1)OC(=O)N(Cc1cccc(NS(=O)(=O)N3CC4(COC4)C3)c1F)C2 [Compound 109, 3-(2-fluoro-3-(2-oxa-6-azaspiro[3.3]heptane-6-sulfonamido)benzyl)-2-oxo-3,4-dihydro-2H-benzo[e][1,3]oxazin-7-yl dimethylcarbamate] | 5 to 50 nM |  | 200 to 1000 nM
18 | CN(C)C(=O)Oc1ccc2c(c1)OC(=O)N(Cc1cccc(NS(=O)(=O)N3CCOCC3)c1F)C2 [Compound 110, 3-(2-fluoro-3-(morpholine-4-sulfonamido)benzyl)-2-oxo-3,4-dihydro-2H-benzo[e][1,3]oxazin-7-yl dimethylcarbamate] | 5 to 50 nM |  | 200 to 1000 nM
19 | CNS(=O)(=O)Nc1cccc(CN2Cc3cc(F)c(OC(=O)N(C)C)cc3OC2=O)c1F [Compound 120, 6-fluoro-3-(2-fluoro-3-((N-methylsulfamoyl)amino)benzyl)-2-oxo-3,4-dihydro-2H-benzo[e][1,3]oxazin-7-yl dimethylcarbamate] | < 5 nM |  | 50 to 200 nM
20 | CNS(=O)(=O)Nc1cccc(CN2C(=O)Oc3cc(OC(=O)N(C)C)ccc3[C@@H]2C)c1F [Compound 152, 3-(2-fluoro-3-((N-methylsulfamoyl)amino)benzyl)-4-methyl-2-oxo-3,4-dihydro-2H-benzo[e][1,3]oxazin-7-yl dimethylcarbamate] | 5 to 50 nM |  | 200 to 1000 nM
21 | CNS(=O)(=O)Nc1cccc(CN2C(=O)Oc3cc(OC(=O)N(C)C)ccc3[C@H]2C)c1F [Compound 153, 3-(2-fluoro-3-((N-methylsulfamoyl)amino)benzyl)-4-methyl-2-oxo-3,4-dihydro-2H-benzo[e][1,3]oxazin-7-yl dimethylcarbamate] | 5 to 50 nM |  | 200 to 1000 nM
